According to patent publication US12121505B2, “Fap-activated therapeutic agents, and uses related thereto” (BACH BIOSCIENCES, LLC, priority 2014, dated 2024):
Read-outs that look alike come from different tables or passages of the source.

Key:
HEK-mFAP cells = test: CellTiter-Blue cell viability assay with HEK-mFAP cells; format: cell-based, Human; details: for activation by FAP expressed by HEK-mFAP cells / effect of addition of the FAP inhibitor 5057 on activation: FIG. 15A, 15B
MCF-7 = test: CellTiter-Blue cell viability assay, MCF-7; format: cell-based; details: 5061DOX assay 2, MCF-7, 72 hour
HEK-Mock cells = test: CellTiter-Blue cell viability assay with HEK-Mock cells; format: cell-based; details: Homo sapiens
OVCAR-3 = test: CellTiter-Blue cell viability assay, OVCAR-3; format: cell-based; details: 5061DOX assay 2, OVCAR-3, 72 hour
SK-OV-3 = test: CellTiter-Blue cell viability assay, SK-OV-3; format: cell-based; details: 5061DOX assay 2, SK-OV-3, 72 hour
PREP = biological target: T1, PREP (Homo sapiens, UniProt P48147); test: Specificity of activation: 24 h digestion with PREP; format: biochemical; details: 100 μM prodrug, 37° C.
T1 sequence (P48147 1-710): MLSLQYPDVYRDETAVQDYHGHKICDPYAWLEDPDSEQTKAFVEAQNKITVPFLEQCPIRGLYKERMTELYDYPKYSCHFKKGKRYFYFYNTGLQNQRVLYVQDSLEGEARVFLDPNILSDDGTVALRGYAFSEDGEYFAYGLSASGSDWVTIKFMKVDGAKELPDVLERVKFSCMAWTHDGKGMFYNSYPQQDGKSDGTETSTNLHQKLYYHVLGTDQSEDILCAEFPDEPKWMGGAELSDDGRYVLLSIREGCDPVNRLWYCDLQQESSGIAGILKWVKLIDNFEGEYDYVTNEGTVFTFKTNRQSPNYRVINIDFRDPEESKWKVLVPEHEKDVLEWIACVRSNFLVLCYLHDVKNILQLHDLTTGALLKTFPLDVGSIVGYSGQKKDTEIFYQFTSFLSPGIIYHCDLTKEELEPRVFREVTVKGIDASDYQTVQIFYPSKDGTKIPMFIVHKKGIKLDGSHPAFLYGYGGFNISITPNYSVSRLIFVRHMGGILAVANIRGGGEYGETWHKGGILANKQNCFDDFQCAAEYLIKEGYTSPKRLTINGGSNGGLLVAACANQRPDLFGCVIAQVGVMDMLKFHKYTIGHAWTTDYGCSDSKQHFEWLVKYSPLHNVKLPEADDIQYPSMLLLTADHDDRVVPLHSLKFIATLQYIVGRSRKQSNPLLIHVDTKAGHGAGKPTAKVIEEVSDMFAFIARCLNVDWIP
Procedure: (§1) Total doxorubicin was measured for each assay.

[1] = biological target: dipeptidyl peptidase IV (DPP IV) (Homo sapiens, UniProt P27487); test: Specificity of activation: 24 h digestion with DPP IV; format: biochemical; details: 100 μM prodrug, 37° C.
Chain of dipeptidyl peptidase IV (DPP IV) (P27487 whole entry, species assumed): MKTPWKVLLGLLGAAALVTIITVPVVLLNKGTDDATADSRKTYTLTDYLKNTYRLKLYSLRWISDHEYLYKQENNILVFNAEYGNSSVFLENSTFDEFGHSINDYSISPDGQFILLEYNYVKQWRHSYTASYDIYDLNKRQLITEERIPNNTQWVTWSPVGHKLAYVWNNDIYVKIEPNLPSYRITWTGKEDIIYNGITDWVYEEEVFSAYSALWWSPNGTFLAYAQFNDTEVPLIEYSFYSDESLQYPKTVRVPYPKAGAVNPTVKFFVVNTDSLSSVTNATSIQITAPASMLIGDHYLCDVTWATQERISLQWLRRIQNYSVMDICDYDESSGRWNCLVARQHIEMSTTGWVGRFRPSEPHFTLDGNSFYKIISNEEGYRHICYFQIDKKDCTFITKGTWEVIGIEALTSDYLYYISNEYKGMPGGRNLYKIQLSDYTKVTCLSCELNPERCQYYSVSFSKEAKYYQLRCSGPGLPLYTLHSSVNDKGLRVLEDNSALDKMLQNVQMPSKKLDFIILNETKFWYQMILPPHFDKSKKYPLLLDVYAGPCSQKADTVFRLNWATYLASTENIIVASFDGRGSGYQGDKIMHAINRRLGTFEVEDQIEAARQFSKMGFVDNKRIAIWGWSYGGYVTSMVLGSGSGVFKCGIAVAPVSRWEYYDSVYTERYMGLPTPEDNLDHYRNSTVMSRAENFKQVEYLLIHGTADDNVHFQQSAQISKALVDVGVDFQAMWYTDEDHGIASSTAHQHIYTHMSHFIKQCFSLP
Procedure: as §1

[2] = Homo sapiens, read-out: EC50 (prodrug + 100 uM 5057)
[3] = Homo sapiens, read-out: EC50 (prodrug alone)
[4] = read-out: EC50 (doxorubicin alone)
[5] = Homo sapiens, 72 h, MK-2206 / Akt inhibitor prodrugs, HEK-mFAP cells, 72 hour incubation, read-out: EC50 (prodrug alone)

**Q.** With `Cn1ncc(Cl)c1-c1cc(C(=O)N[C@H](CNC(=O)[C@@H]2CC(F)(F)CN2C(=O)CNC(=O)c2ccnc3ccccc23)Cc2cccc(F)c2)sc1Cl` [Compound 5184] as the compound, how does the EC50 (HEK-mFAP cells; Homo sapiens, 72 h, Akt inhibitor prodrugs, HEK-mFAP cells, 72 hrs, read-out: EC50 (prodrug alone)) read?
**A.** Its EC50 is 0.93 µM.

**Q.** Which results are given for `COc1cccc2c1C(=O)c1c(O)c3c(c(O)c1C2=O)C[C@@](O)(C(=O)CO)C[C@@H]3OC1CC(NC(=O)[C@@H]2CCCN2C(=O)[C@@H](C)NC(=O)c2ccnc3cccc(Br)c23)C(O)C(C)O1` (stereo partly drawn) [Compound 5061DOX]?
**A.** EC50 (MCF-7; Homo sapiens, MCF7, read-out: EC50 (prodrug + 25 nM FAP)): > 100 µM; EC50 (MCF-7; Homo sapiens, MCF7, read-out: EC50 (prodrug + 100 uM 5057)): > 100 µM; EC50 (MCF-7; Homo sapiens, MCF7, read-out: EC50 (prodrug alone)): > 100 µM; EC50 (HEK-Mock cells; 72 h, 5061DOX assay 1, HEK-Mock, 72 hour, read-out: EC50 (prodrug + 25 nM FAP)): 0.28 µM; EC50 (HEK-Mock cells; 72 h, 5061DOX assay 1, HEK-Mock, 72 hour, read-out: EC50 (prodrug + 50 nM PREP)): > 100 µM; EC50 (HEK-Mock cells; 72 h, 5061DOX assay 1, HEK-Mock, 72 hour, read-out: EC50 (prodrug + 100 uM 5057)): > 100 µM; EC50 (HEK-Mock cells; 72 h, 5061DOX assay 1, HEK-Mock, 72 hour, read-out: EC50 (prodrug alone)): > 100 µM; EC50 (HEK-Mock cells; 72 h, 5061DOX assay 2, HEK-Mock, 72 hour, read-out: EC50 (prodrug + 25 nM FAP)): 0.25 µM; EC50 (HEK-Mock cells; 72 h, 5061DOX assay 2, HEK-Mock, 72 hour, read-out: EC50 (prodrug alone)): > 100 µM; EC50 (HEK-mFAP cells; 5061DOX assay 1, HEK-mFAP, 72 hour, read-out: EC50 (prodrug alone)): > 100 µM; EC50 (HEK-mFAP cells; 5061DOX assay 2, HEK-mFAP, 72 hour, read-out: EC50 (prodrug + 100 uM 5057)): > 100 µM; EC50 (HEK-mFAP cells; Homo sapiens, 5061DOX assay 1, HEK-mFAP, 72 hour, read-out: EC50 (prodrug + 100 uM 5057)): > 100 µM; EC50 (HEK-mFAP cells; Homo sapiens, 5061DOX assay 2, HEK-mFAP, 72 hour, read-out: EC50 (prodrug alone)): > 100 µM; EC50 (OVCAR-3; [2]): > 100 µM; EC50 (OVCAR-3; Homo sapiens, read-out: EC50 (prodrug = 25 nM FAP)): 1.5 µM; EC50 (OVCAR-3; [3]): > 100 µM; EC50 (SK-OV-3; Homo sapiens, read-out: EC50 (prodrug + 25 nM FAP)): 0.9 µM; EC50 (SK-OV-3; [2]): > 100 µM; EC50 (SK-OV-3; [3]): > 100 µM

**Q.** Which EC50 (HEK-Mock cells; 5157 assay, HEK-Mock, read-out: EC50 (prodrug + 100 uM 3099-15)) does the source give for `C[C@@H](NC(=O)c1ccncc1)C(=O)N1CCC[C@H]1C(=O)Nc1ccc(COC(=O)NC2(c3ccc(-c4nc5ccn6c(=O)[nH]nc6c5cc4-c4ccccc4)cc3)CCC2)cc1` [Compound 5157] here?
**A.** The EC50 was greater than 2.5 µM.

**Q.** What about the EC50 (HEK-Mock cells; 5157 assay, HEK-Mock, read-out: EC50 (prodrug alone)) of the same compound?
**A.** Its EC50 is greater than 2.5 µM.

**Q.** What about the EC50 (HEK-mFAP cells; Homo sapiens, 5157 assay, HEK-mFAP, read-out: EC50 (prodrug + 100 uM 3099-15)) of the same compound?
**A.** The EC50 was greater than 2.5 µM.

**Q.** What about the EC50 (HEK-mFAP cells; Homo sapiens, 5157 assay, HEK-mFAP, read-out: EC50 (prodrug alone)) of the same compound?
**A.** Its EC50 is 2.9 µM.

**Q.** `COc1cccc2c1C(=O)c1c(O)c3c(c(O)c1C2=O)C[C@@](O)(C(=O)CO)C[C@@H]3O[C@H]1C[C@H](N)[C@H](O)[C@H](C)O1` [doxorubicin, reference compound] was tested. Which EC50 (MCF-7; [4]) did it give?
**A.** The EC50 was 54 µM.

**Q.** And the EC50 (OVCAR-3; [4])?
**A.** Its EC50 is 1.7 µM.

**Q.** And the EC50 (SK-OV-3; [4])?
**A.** The EC50 was 0.44 µM.

**Q.** `NNc1ccc(C(=O)NCC(=O)N2CC(F)(F)C[C@H]2C(=O)Nc2ccc(COC(=O)NC3(c4ccc(-c5nc6ccn7c(=O)[nH]nc7c6cc5-c5ccccc5)cc4)CCC3)cc2)cn1` [Compound 5192] was tested. Which EC50 (HEK-mFAP cells; [5]) did it give?
**A.** The EC50 was greater than 3 µM.

**Q.** Which EC50 (HEK-mFAP cells; Homo sapiens, 5107DOX assay, HEK-mFAP, 72 hour, read-out: EC50 (prodrug + 100 uM 5057-2)) does the source give for `COc1cccc2c1C(=O)c1c(O)c3c(c(O)c1C2=O)C[C@@](O)(C(=O)CO)C[C@@H]3OC1CC(NC(=O)[C@@H]2CC(F)(F)CN2C(=O)[C@@H](C)NC(=O)c2ccnc3ccccc23)C(O)C(C)O1` (stereo partly drawn) [Compound 5107DOX] here?
**A.** The EC50 was greater than 100 µM.

**Q.** And the EC50 (HEK-mFAP cells; Homo sapiens, 5107DOX assay, HEK-mFAP, 72 hour, read-out: EC50 (prodrug alone))?
**A.** The EC50 was 0.94 µM.

**Q.** Which EC50 (HEK-mFAP cells; Homo sapiens, 72 h, Akt inhibitor prodrugs, HEK-mFAP cells, 72 hour, read-out: EC50 (prodrug + 100 uM 5057-2)) does the source give for `O=C(NC1(C(=O)N[C@@H](CCO)c2ccc(Cl)cc2)CCN(c2ncnc3[nH]ccc23)CC1)OCc1ccc(NC(=O)[C@@H]2CC(F)(F)CN2C(=O)CNC(=O)c2ccnc3ccccc23)cc1` [Compound 5189] here?
**A.** Its EC50 is 5.8 µM.

**Q.** What about the EC50 (HEK-mFAP cells; [5]) of the same compound?
**A.** Its EC50 is 3 µM.

**Q.** For `CCn1c(-c2nonc2N)nc2c(C#CC(C)(C)O)ncc(OC[C@H]3CCCN(C(=O)[C@@H]4CC(F)(F)CN4C(=O)CNC(=O)c4ccnc5ccccc45)C3)c21` [Compound 5188], which EC50 (HEK-mFAP cells; [5]) is on record?
**A.** The EC50 was greater than 25 µM.

**Q.** Which results are given for `NC1(c2ccc(-c3nc4ccn5c(=O)[nH]nc5c4cc3-c3ccccc3)cc2)CCC1` [MK-2206, reference compound]?
**A.** EC50 (HEK-Mock cells; 5157 assay, HEK-Mock, read-out: EC50 (MK-2206 alone)): 6.7 µM; EC50 (HEK-mFAP cells; Homo sapiens, 5157 assay, HEK-mFAP, read-out: EC50 (MK-2206 alone)): 5.3 µM; EC50 (HEK-mFAP cells; Homo sapiens, 72 h, HEK-mFAP cells, 72 hrs, read-out: EC50 (MK-2206)): 9.1 µM

**Q.** Which EC50 (HEK-mFAP cells; Homo sapiens, 72 h, HEK-mFAP cells, 72 hour, read-out: EC50 (GSK690693)) does the source give for `CCn1c(-c2nonc2N)nc2c(C#CC(C)(C)O)ncc(OC[C@H]3CCCNC3)c21` [GSK690693, reference compound] here?
**A.** The EC50 was 15 µM.

**Q.** With `NCC(=O)NNc1ccc(C(=O)NCC(=O)N2CC(F)(F)C[C@H]2C(=O)Nc2ccc(COC(=O)NC3(c4ccc(-c5nc6ccn7c(=O)[nH]nc7c6cc5-c5ccccc5)cc4)CCC3)cc2)cn1` [Compound 5193] as the compound, how does the EC50 (HEK-mFAP cells; [5]) read?
**A.** Its EC50 is 2.6 µM.

**Q.** For `COc1cccc2c1C(=O)c1c(O)c3c(c(O)c1C2=O)C[C@@](O)(C(=O)CO)C[C@@H]3OC1CC(NC(=O)[C@@H]2CCCN2C(=O)[C@@H](C)NC(=O)[C@H](CO)NC(=O)CCC(=O)O)C(O)C(C)O1` (stereo partly drawn) [Compound 3996DOX], which “doxorubicin released by PREP” value (PREP) is on record?
**A.** Its value is “essentially none by PREP or DPP IV”.

**Q.** What about the “doxorubicin released by DPP IV” value [1] of the same compound?
**A.** The value was “essentially none by PREP or DPP IV”.

**Q.** `C[C@@H](NC(=O)c1ccnc2ccccc12)C(=O)N1CC(F)(F)C[C@H]1C(=O)Nc1ccc(COC(=O)NC2(c3ccc(-c4nc5ccn6c(=O)[nH]nc6c5cc4-c4ccccc4)cc3)CCC2)cc1` [Compound 5174] was tested. Which “activation by FAP expressed by HEK-mFAP cells” value (HEK-mFAP cells) did it give?
**A.** The value was “appears to be activated by the FAP expressed by the HEK-mFAP cells”.

**Q.** What about the “effect of addition of the FAP inhibitor 5057 on activation” value (HEK-mFAP cells) of the same compound?
**A.** The value was “blocks this activation”.

**Q.** And the EC50 (HEK-mFAP cells; [5])?
**A.** The EC50 was 4.6 µM.

**Q.** With `O=C(NC1(c2ccc(-c3nc4ccn5c(=O)[nH]nc5c4cc3-c3ccccc3)cc2)CCC1)OCc1ccc(NC(=O)[C@@H]2CC(F)(F)CN2C(=O)CNC(=O)c2ccnc3ccccc23)cc1` [Compound 5173] as the compound, how does the “activation by FAP expressed by HEK-mFAP cells” value (HEK-mFAP cells) read?
**A.** The value was “appears to be activated by the FAP expressed by the HEK-mFAP cells”.

**Q.** And the “effect of addition of the FAP inhibitor 5057 on activation” value (HEK-mFAP cells)?
**A.** Its value is “blocks this activation”.

**Q.** What about the EC50 (HEK-mFAP cells; [5]) of the same compound?
**A.** The EC50 was greater than 2.5 µM.

**Q.** With `Cn1ncc(Cl)c1-c1cc(C(=O)N[C@H](CN)Cc2cccc(F)c2)sc1Cl` [GSK2 110183, reference compound] as the compound, how does the EC50 (HEK-mFAP cells; HEK-mFAP cells, 72 hrs, read-out: EC50 (GSK2 110183)) read?
**A.** Its EC50 is 0.49 µM.

**Q.** AZD5363 [reference compound] was tested. Which EC50 (HEK-mFAP cells; HEK-mFAP cells, 72 hour, read-out: EC50 (AZD5363)) did it give?
**A.** Its EC50 is 2.5 µM.
